How the values were obtained:
Assay type in all cases: in vivo
[1] = test system: giant foxtail (Setaria faberi); test: Test G Post-Emergence Protocol; conditions: Setaria faberi, post-emergence, 312 h; for pest or weed control at 15.625 g/ha: 15.625 g ai/ha, evaluated after 13 days (100=total damage to plant; 0=no damage to plant), read-out: Foxtail, Giant damage rating; for pest or weed control at 62.5 g/ha: 62.5 g ai/ha, read-out: Foxtail, Giant damage rating (100=total damage to plant; 0=no damage to plant); for pest or weed control at 62.5 g/ha / pest or weed control at 250 g/ha: evaluated after 13 days; for pest or weed control at 250 g/ha: 250 g ai/ha, read-out: damage to plant, Foxtail, Giant (100=total damage to plant; 0=no damage to plant)
Summary of the method: (§1)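 Pot-grown seedlings, 8 days old, raised in a glasshouse at 24/16 °C day/night with 14 h light and 65% humidity, were sprayed post-emergence with test compound in acetone/water (50:50) plus 0.5% Tween 20 at 15.625, 62.5 or 250 g/ha. Damage was scored visually 13 days later on a 0–100 scale (100 = total damage).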

[2] = test system: velvetleaf (Abutilon theophrasti); test: Test G Post-Emergence Protocol; conditions: Abutilon theophrasti, post-emergence, 312 h; for pest or weed control at 15.625 g/ha: 15.625 g ai/ha, evaluated after 13 days (100=total damage to plant; 0=no damage to plant), read-out: Velvetleaf damage rating; for pest or weed control at 62.5 g/ha: 62.5 g ai/ha, read-out: Velvetleaf damage rating (100=total damage to plant; 0=no damage to plant); for pest or weed control at 62.5 g/ha / pest or weed control at 250 g/ha: evaluated after 13 days; for pest or weed control at 250 g/ha: 250 g ai/ha, read-out: damage to plant, Velvetleaf (100=total damage to plant; 0=no damage to plant)
Summary of the method: as §1

[3] = test system: barnyardgrass (Echinochloa crus-galli); test: Test G Post-Emergence Protocol; conditions: Echinochloa crus-galli, post-emergence, 312 h; for pest or weed control at 15.625 g/ha: 15.625 g ai/ha, evaluated after 13 days (100=total damage to plant; 0=no damage to plant), read-out: Barnyardgrass damage rating; for pest or weed control at 62.5 g/ha: 62.5 g ai/ha, read-out: Barnyardgrass damage rating (100=total damage to plant; 0=no damage to plant); for pest or weed control at 62.5 g/ha / pest or weed control at 250 g/ha: evaluated after 13 days; for pest or weed control at 250 g/ha: 250 g ai/ha, read-out: damage to plant, Barnyardgrass (100=total damage to plant; 0=no damage to plant)
Summary of the method: as §1

[4] = test system: redroot pigweed (Amaranthus retroflexus); test: Test G Post-Emergence Protocol; conditions: Amaranthus retroflexus, post-emergence, 312 h; for pest or weed control at 15.625 g/ha: 15.625 g ai/ha, evaluated after 13 days (100=total damage to plant; 0=no damage to plant), read-out: Pigweed, Redroot damage rating; for pest or weed control at 62.5 g/ha: 62.5 g ai/ha, read-out: Pigweed, Redroot damage rating (100=total damage to plant; 0=no damage to plant); for pest or weed control at 62.5 g/ha / pest or weed control at 250 g/ha: evaluated after 13 days; for pest or weed control at 250 g/ha: 250 g ai/ha, read-out: damage to plant, Pigweed, Redroot (100=total damage to plant; 0=no damage to plant)
Summary of the method: as §1

corn (Zea mays) [5] = test: Test G Post-Emergence Protocol; conditions: Zea mays, post-emergence, 312 h; for plant injury at 15.625 g/ha: 15.625 g ai/ha, evaluated after 13 days (100=total damage to plant; 0=no damage to plant), read-out: Corn damage rating; for plant injury at 62.5 g/ha: 62.5 g ai/ha, read-out: Corn damage rating (100=total damage to plant; 0=no damage to plant); for plant injury at 62.5 g/ha / plant injury at 250 g/ha: evaluated after 13 days; for plant injury at 250 g/ha: 250 g ai/ha, read-out: damage to plant, Corn (100=total damage to plant; 0=no damage to plant)
Summary of the method: as §1

[6] = test system: ivy-leaved morning glory (Ipomoea hederacea); test: Test G Post-Emergence Protocol; conditions: Ipomoea, post-emergence, 312 h; for pest or weed control at 15.625 g/ha: 15.625 g ai/ha, evaluated after 13 days (100=total damage to plant; 0=no damage to plant), read-out: Morningglory, Ivy-leaved damage rating; for pest or weed control at 62.5 g/ha: 62.5 g ai/ha, read-out: Morningglory, Ivy-leaved damage rating (100=total damage to plant; 0=no damage to plant); for pest or weed control at 62.5 g/ha / pest or weed control at 250 g/ha: evaluated after 13 days; for pest or weed control at 250 g/ha: 250 g ai/ha, read-out: damage to plant, Morningglory, Ivy-leaved (100=total damage to plant; 0=no damage to plant)
Summary of the method: as §1

[7] = test system: giant foxtail (Setaria faberi); test: Test G Pre-Emergence Protocol; conditions: Setaria faberi, pre-emergence, 312 h, evaluated after 13 days; for pest or weed control at 15.625 g/ha: 15.625 g ai/ha; for pest or weed control at 15.625 g/ha / pest or weed control at 250 g/ha: read-out: Foxtail, Giant damage rating (100=total damage to plant; 0=no damage to plant); for pest or weed control at 62.5 g/ha: 62.5 g ai/ha, 100=total damage to plant, 0=no damage to plant, read-out: plant damage rating, Foxtail, Giant; for pest or weed control at 250 g/ha: 250 g ai/ha
Summary of the method: (§2)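 Pots of seeds in standard soil were grown for one day in a glasshouse (24/16 °C day/night, 14 h light, 65% humidity), then sprayed with compound in acetone/water 50:50 with 0.5% Tween 20 at 15.625, 62.5 or 250 g/ha. Damage was scored after 13 days on a 0 (none) to 100 (total) scale.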

[8] = test system: velvetleaf (Abutilon theophrasti); test: Test G Pre-Emergence Protocol; conditions: Abutilon theophrasti, pre-emergence, 312 h, evaluated after 13 days; for pest or weed control at 15.625 g/ha: 15.625 g ai/ha; for pest or weed control at 15.625 g/ha / pest or weed control at 250 g/ha: read-out: Velvetleaf damage rating (100=total damage to plant; 0=no damage to plant); for pest or weed control at 62.5 g/ha: 62.5 g ai/ha, 100=total damage to plant, 0=no damage to plant, read-out: plant damage rating, Velvetleaf; for pest or weed control at 250 g/ha: 250 g ai/ha
Summary of the method: as §2

[9] = test system: barnyardgrass (Echinochloa crus-galli); test: Test G Pre-Emergence Protocol; conditions: Echinochloa crus-galli, pre-emergence, 312 h, evaluated after 13 days; for pest or weed control at 15.625 g/ha: 15.625 g ai/ha, read-out: Barnyard grass damage rating (100=total damage to plant; 0=no damage to plant); for pest or weed control at 62.5 g/ha: 62.5 g ai/ha, 100=total damage to plant, 0=no damage to plant, read-out: plant damage rating, Barnyardgrass; for pest or weed control at 250 g/ha: 250 g ai/ha, read-out: Barnyardgrass damage rating (100=total damage to plant; 0=no damage to plant)
Summary of the method: as §2

[10] = test system: redroot pigweed (Amaranthus retroflexus); test: Test G Pre-Emergence Protocol; conditions: Amaranthus retroflexus, pre-emergence, 312 h, evaluated after 13 days; for pest or weed control at 15.625 g/ha: 15.625 g ai/ha; for pest or weed control at 15.625 g/ha / pest or weed control at 250 g/ha: read-out: Pigweed, Redroot damage rating (100=total damage to plant; 0=no damage to plant); for pest or weed control at 62.5 g/ha: 62.5 g ai/ha, 100=total damage to plant, 0=no damage to plant, read-out: plant damage rating, Pigweed, Redroot; for pest or weed control at 250 g/ha: 250 g ai/ha
Summary of the method: as §2

corn (Zea mays) [11] = test: Test G Pre-Emergence Protocol; conditions: Zea mays, pre-emergence, 312 h, evaluated after 13 days; for plant injury at 15.625 g/ha: 15.625 g ai/ha; for plant injury at 15.625 g/ha / plant injury at 250 g/ha: read-out: Corn damage rating (100=total damage to plant; 0=no damage to plant); for plant injury at 62.5 g/ha: 62.5 g ai/ha, 100=total damage to plant, 0=no damage to plant, read-out: plant damage rating, Corn; for plant injury at 250 g/ha: 250 g ai/ha
Summary of the method: as §2

[12] = test system: ivy-leaved morning glory (Ipomoea hederacea); test: Test G Pre-Emergence Protocol; conditions: Ipomoea, pre-emergence, 312 h, evaluated after 13 days; for pest or weed control at 15.625 g/ha: 15.625 g ai/ha, read-out: Morning-glory, Ivy-leaved damage rating (100=total damage to plant; 0=no damage to plant); for pest or weed control at 62.5 g/ha: 62.5 g ai/ha, 100=total damage to plant, 0=no damage to plant, read-out: plant damage rating, Morningglory, Ivy-leaved; for pest or weed control at 250 g/ha: 250 g ai/ha, read-out: Morningglory, Ivy-leaved damage rating (100=total damage to plant; 0=no damage to plant)
Summary of the method: as §2

CN1C[C@@H](c2ccc(C(F)(F)F)cc2)[C@H](C(=O)Nc2cn(C)nn2)C1=O (racemic) [Compound 1527]
0%: pest or weed control at 15.625 g/ha [1] | pest or weed control at 62.5 g/ha [1] | pest or weed control at 250 g/ha [1] | pest or weed control at 15.625 g/ha [2] | pest or weed control at 62.5 g/ha [2] | pest or weed control at 250 g/ha [2] | pest or weed control at 15.625 g/ha [3] | pest or weed control at 62.5 g/ha [3] | pest or weed control at 250 g/ha [3] | pest or weed control at 15.625 g/ha [4] | pest or weed control at 62.5 g/ha [4] | pest or weed control at 250 g/ha [4] | pest or weed control at 15.625 g/ha [6] | pest or weed control at 62.5 g/ha [6] | pest or weed control at 250 g/ha [6] | pest or weed control at 15.625 g/ha [7] | pest or weed control at 62.5 g/ha [7] | pest or weed control at 250 g/ha [7] | pest or weed control at 15.625 g/ha [8] | pest or weed control at 62.5 g/ha [8] | pest or weed control at 250 g/ha [8] | pest or weed control at 15.625 g/ha [9] | pest or weed control at 62.5 g/ha [9] | pest or weed control at 250 g/ha [9] | pest or weed control at 15.625 g/ha [10] | pest or weed control at 62.5 g/ha [10] | pest or weed control at 250 g/ha [10] | plant injury at 15.625 g/ha (corn (Zea mays) [11]) | plant injury at 62.5 g/ha (corn (Zea mays) [11]) | plant injury at 250 g/ha (corn (Zea mays) [11]) | pest or weed control at 15.625 g/ha [12] | pest or weed control at 62.5 g/ha [12] | pest or weed control at 250 g/ha [12]
10%: plant injury at 15.625 g/ha (corn (Zea mays) [5]) | plant injury at 62.5 g/ha (corn (Zea mays) [5]) | plant injury at 250 g/ha (corn (Zea mays) [5])

CN1C[C@@H](c2ccc(C(F)(F)F)cc2)[C@H](C(=O)Nc2cccc3c2CCC3)C1=O (racemic) [Compound 1624]
30%: pest or weed control at 62.5 g/ha [4]
20%: pest or weed control at 62.5 g/ha [3] | pest or weed control at 250 g/ha [4] | pest or weed control at 62.5 g/ha [6] | pest or weed control at 250 g/ha [6] | pest or weed control at 15.625 g/ha [7] | pest or weed control at 250 g/ha [10]
0%: pest or weed control at 15.625 g/ha [2] | pest or weed control at 15.625 g/ha [3] | pest or weed control at 15.625 g/ha [4] | plant injury at 15.625 g/ha (corn (Zea mays) [5]) | pest or weed control at 15.625 g/ha [8] | pest or weed control at 62.5 g/ha [8] | pest or weed control at 15.625 g/ha [9] | pest or weed control at 62.5 g/ha [9] | pest or weed control at 15.625 g/ha [10] | pest or weed control at 62.5 g/ha [10] | plant injury at 15.625 g/ha (corn (Zea mays) [11]) | plant injury at 62.5 g/ha (corn (Zea mays) [11]) | plant injury at 250 g/ha (corn (Zea mays) [11]) | pest or weed control at 15.625 g/ha [12] | pest or weed control at 62.5 g/ha [12] | pest or weed control at 250 g/ha [12]
80%: pest or weed control at 62.5 g/ha [1] | pest or weed control at 250 g/ha [1] | pest or weed control at 250 g/ha [7] | pest or weed control at 250 g/ha [9]
10%: pest or weed control at 15.625 g/ha [1] | pest or weed control at 62.5 g/ha [2] | pest or weed control at 250 g/ha [2] | plant injury at 62.5 g/ha (corn (Zea mays) [5]) | plant injury at 250 g/ha (corn (Zea mays) [5]) | pest or weed control at 15.625 g/ha [6] | pest or weed control at 250 g/ha [8]
60%: pest or weed control at 62.5 g/ha [7]
70%: pest or weed control at 250 g/ha [3]

Reference: patent US12077503B2, “Substituted cyclic amides and their use as herbicides” (FMC CORPORATION, priority 2015, dated 2024)
